Reference: PubChem BioAssay (NCI)
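1) Cells in 96-well plates. 2) Compound, 48 h, 5 concentrations. 3) Linear interpolation between surrounding doses. 4) Unreached endpoint = highest concentration. At the TGI there is no net growth.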

Experiments:
Assay in all cases: NCI-60 cell line screen, 48 h
SNB-75 CNS = tested on: SNB-75 CNS
M19-MEL melanoma = tested on: M19-MEL melanoma
SN12K1 renal = tested on: SN12K1 renal
CAKI-1 renal = tested on: CAKI-1 renal
A549 NSCLC = tested on: A549 NSCLC
XF 498 CNS = tested on: XF 498 CNS
SNB-78 CNS = tested on: SNB-78 CNS
HOP-18 NSCLC = tested on: HOP-18 NSCLC
DMS 114 small cell lung = tested on: DMS 114 small cell lung
KM20L2 colon = tested on: KM20L2 colon
SK-MEL-5 melanoma = tested on: SK-MEL-5 melanoma
PC-3 prostate = tested on: PC-3 prostate
TK-10 renal = tested on: TK-10 renal
ACHN renal = tested on: ACHN renal
DU-145 prostate = tested on: DU-145 prostate
HS 578T breast = tested on: HS 578T breast
MDA-N = tested on: MDA-N
SR leukemia = tested on: SR leukemia
MDA-MB-435 = tested on: MDA-MB-435
MDA-MB-231 breast = tested on: MDA-MB-231 breast

SMILES | TGI (SNB-75 CNS) [µM] | TGI (M19-MEL melanoma) [µM] | TGI (SN12K1 renal) [µM] | TGI (CAKI-1 renal) [µM] | TGI (A549 NSCLC) [µM] | TGI (XF 498 CNS) [µM] | TGI (SNB-78 CNS) [µM] | TGI (HOP-18 NSCLC) [µM] | TGI (DMS 114 small cell lung) [µM] | TGI (KM20L2 colon) [µM] | TGI (SK-MEL-5 melanoma) [µM] | TGI (PC-3 prostate) [µM] | TGI (TK-10 renal) [µM] | TGI (ACHN renal) [µM] | TGI (DU-145 prostate) [µM] | TGI (HS 578T breast) [µM] | TGI (MDA-N) [µM] | TGI (SR leukemia) [µM] | TGI (MDA-MB-435) [µM] | TGI (MDA-MB-231 breast) [µM]
CCCN1C(=O)/C(=C(/O)C(=O)OCC)C(c2ccc(OC)c(OC)c2)C1=O (stereo not given) | > 100 | > 100 | > 100 | > 100 | > 100 | > 100 | > 100 | > 100 | > 100 | > 100 | > 100 | – | – | – | – | – | – | – | – | –
Cc1[nH]c(=O)[nH]c(=O)c1C(=O)N(CCO)Cc1ccccc1 | – | – | – | – | – | – | – | – | – | – | – | 94.8 | > 100 | > 100 | > 100 | 41.9 | > 100 | > 100 | > 100 | > 100
